# Measurements: patent US8791104B2, “1,4-benzodiazepine-2,5-diones with therapeutic properties” (The Regents of the University of Michigan, priority 2005, dated 2014)
# Legend:
# ATP synthesis = assay: Cellular ATP synthesis in the presence of compounds; format: cell-based; details: compounds exposed to cells (FIG. 6)
# Method: The following four compounds were exposed to cells, and ATP synthesis measured: […]
# animal models of lupus = details: in vivo; cited from earlier work
# [1] = test system: mitochondrial F1F0-ATPase; details: cited from earlier work
# [2] = molecular target: T1, oligomycin sensitivity conferring protein (OSCP) component of the mitochondrial F1F0-ATPase (Homo sapiens, UniProt P48047); details: cited from earlier work
# T1 sequence (P48047 24-213): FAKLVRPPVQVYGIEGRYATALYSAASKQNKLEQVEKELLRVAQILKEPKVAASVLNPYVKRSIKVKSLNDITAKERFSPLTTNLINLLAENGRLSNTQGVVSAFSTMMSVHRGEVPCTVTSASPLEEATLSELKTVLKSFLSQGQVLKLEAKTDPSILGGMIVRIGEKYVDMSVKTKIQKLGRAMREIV
Compound,inhibition of ATP synthesis (ATP synthesis),activity in animal models of lupus (animal models of lupus),inhibition of the F1F0-ATPase [1],binding to OSCP [2]
CN1C(=O)C(c2ccccc2)NC(c2ccc(O)cc2)c2cc(Cl)ccc21 (stereo not shown),did inhibit ATP synthesis,–,–,–
CN1C(=O)C(Cc2ccc3ccccc3c2)N=C(c2ccc(O)cc2)c2cc(Cl)ccc21 (stereo not shown) [Bz-423],–,potent activity in animal models of lupus,inhibits the enzyme,binds to the oligomycin sensitivity conferring protein (OSCP)
